System: HCV replicon genotype 1b c16
Experiment: HCV replicon assay, genotype 1b c16
Assay type: cell-based
Conditions: Hepatitis C virus
Protocol: (§1) To measure cell-based anti-HCV activity of selected compounds of the present invention, replicon cells were seeded at 5000 cells/well in 96-well collagen I-coated Nunc plates in the presence of the test compound. Various concentrations of test compound, typically in 10 serial 2-fold dilutions, were added to the assay mixture, with the starting concentration ranging from 250 μM to 1 μM. The final concentration of DMSO was 0.5%, fetal bovine serum was 5%, in the assay media. Cells were harvested on day 3 by the addition of 1× cell lysis buffer (Ambion cat #8721). The replicon RNA level was measured using real time PCR (Taqman assay). The amplicon was located in 5B. The PCR primers were: 5B.2F, ATGGACAGGCGCCCTGA (SEQ. ID NO. 1); 5B.2R, […] (SEQ. ID NO. 2); the probe sequence was FAM-labeled CACGCCATGCGCTGCGG (SEQ. ID NO. 3). GAPDH RNA was used as endogenous control and was amplified in the same reaction as NS5B (multiplex PCR) using primers and VIC-labeled probe recommended by the manufacturer (PE Applied Biosystem). […] Alternatively, to quantitate the absolute amount of replicon RNA, a standard curve was established by including serially diluted T7 transcripts of replicon RNA in the Taqman assay. […]

SMILES	EC50
COC(=O)N[C@H](C(=O)N1CCC[C@H]1c1nc2ccc(-c3ccc(-c4ccc5nc([C@@H]6CCCN6C(=O)[C@@H](NC(=O)OC)C(C)C)[nH]c5c4)c(OC(F)(F)F)c3)cc2[nH]1)C(C)C [Compound 129]	0.003 nM

System: HCV replicon genotype 1a 1A7
Experiment: HCV replicon assay, genotype 1a 1A7
Assay type: cell-based
Conditions: Hepatitis C virus
Protocol: as §1

SMILES	EC50
COC(=O)N[C@H](C(=O)N1CCC[C@H]1c1nc2ccc(-c3ccc(-c4ccc5nc([C@@H]6CCCN6C(=O)[C@@H](NC(=O)OC)C(C)C)[nH]c5c4)c(OC(F)(F)F)c3)cc2[nH]1)C(C)C [Compound 129]	0.05 nM

System: HCV replicon
Experiment: Cell-based HCV replicon assay (EC90)
Conditions: Hepatitis C virus, 72 h; replicon RNA by real time PCR (Taqman), day 3; class symbols; read-out: Biological Activity (EC90, HCV replicon)
Protocol: To measure cell-based anti-HCV activity of selected compounds of the present invention, replicon cells were seeded at 5000 cells/well in 96-well collagen I-coated Nunc plates in the presence of the test compound. Various concentrations of test compound, typically in 10 serial 2-fold dilutions, were added to the assay mixture, with the starting concentration ranging from 250 μM to 1 μM. The final concentration of DMSO was 0.5%, fetal bovine serum was 5%, in the assay media. Cells were harvested on day 3 by the addition of 1× cell lysis buffer (Ambion cat #8721). The replicon RNA level was measured using real time PCR (Taqman assay). The amplicon was located in 5B. The PCR primers were: 5B.2F, ATGGACAGGCGCCCTGA (SEQ. ID NO. 1); 5B.2R, […] (SEQ. ID NO. 2); the probe sequence was FAM-labeled CACGCCATGCGCTGCGG (SEQ. ID NO. 3). GAPDH RNA was used as endogenous control and was amplified in the same reaction as NS5B (multiplex PCR) using primers and VIC-labeled probe recommended by the manufacturer (PE Applied Biosystem). The real-time RT-PCR reactions were run on ABI PRISM 7900HT Sequence Detection System using the following program: 48° C. for 30 min, 95° C. for 10 min, 40 cycles of 95° C. for 15 sec, 60° C. for 1 min. The ACT values (CT5B-CTGAPDH) were plotted against the concentration of test compound and fitted to the sigmoid dose-response model using XLfit4 (MDL). EC50 was defined as the concentration of inhibitor necessary to achieve ΔCT=1 over the projected baseline; EC90 the concentration necessary to achieve ΔCT=3.2 over the baseline. Alternatively, to quantitate the absolute amount of replicon RNA, a standard curve was established by including serially diluted T7 transcripts of replicon RNA in the Taqman assay. All Taqman reagents were from PE Applied Biosystems. Such an assay procedure was described in detail in e.g. Malcolm et al., Antimicrobial Agents and Chemotherapy 50: 1013-1020 (2006).
HCV replicon assay data was calculated for selected compounds of the present invention using this method.

SMILES	EC90
COC(=O)N[C@H](C(=O)N1CCC[C@H]1c1nc2cc(F)c(-c3cc(C)c(-c4cc5[nH]c([C@@H]6CCCN6C(=O)[C@@H](NC(=O)OC)C(C)C)nc5cc4F)s3)cc2[nH]1)C(C)C [Compound 119]	< 1 nM
CCCCc1cc(-c2ccc3nc([C@@H]4CCCN4C(=O)[C@@H](NC(=O)OC)C(C)C)[nH]c3c2)sc1-c1ccc2nc([C@@H]3CCCN3C(=O)[C@@H](NC(=O)OC)C(C)C)[nH]c2c1 [Compound 121]	< 1 nM
COC(=O)N[C@H](C(=O)N1CCC[C@H]1c1nc2ccc(-c3ccc(-c4ccc5nc([C@@H]6CCCN6C(=O)[C@@H](NC(=O)OC)C(C)C)[nH]c5c4)nc3)cc2[nH]1)C(C)C [Compound 44]	< 1 nM
c1cc(-c2ccc3nc([C@@H]4CCCN4)[nH]c3c2)ncc1-c1ccc2nc([C@@H]3CCCN3)[nH]c2c1 [Compound 43]	> 1000 nM
COC(=O)N[C@H](C(=O)N1CCC[C@H]1c1nc2ccc(-c3cnc(-c4ccc5nc([C@@H]6CCCN6C(=O)[C@@H](NC(=O)OC)C(C)C)[nH]c5c4)cn3)cc2[nH]1)C(C)C [Compound 64]	< 1 nM
COC(=O)N[C@H](C(=O)N1CCC[C@H]1c1nc2ccc(-c3ccc(-c4ccc5nc([C@@H]6CCCN6C(=O)[C@@H](NC(=O)OC)C(C)C)[nH]c5c4)c(OC(F)(F)F)c3)cc2[nH]1)C(C)C [Compound 129]	< 1 nM
CC(=O)N1CCC[C@H]1c1nc2ccc(-c3ccc(-c4ccc5nc([C@@H]6CCCN6C(C)=O)[nH]c5c4)nc3)cc2[nH]1 [Compound 42]	> 1000 nM
[2H]C([2H])([2H])C([2H])(C([2H])([2H])[2H])[C@]([2H])(NC(=O)OC)C(=O)N1C([2H])([2H])C([2H])([2H])C([2H])([2H])[C@]1([2H])c1nc2ccc(-c3ccc(-c4ccc5nc([C@]6([2H])N(C(=O)[C@@]([2H])(NC(=O)OC)C([2H])(C([2H])([2H])[2H])C([2H])([2H])[2H])C([2H])([2H])C([2H])([2H])C6([2H])[2H])[nH]c5c4)c(OC(F)(F)F)c3)cc2[nH]1 [Compound 135]	< 1 nM
COC(=O)N[C@H](C(=O)N1CCC[C@H]1c1nc2ccc(-c3ccc(-c4ccc5nc([C@@H]6CCCN6C(=O)[C@@H](NC(=O)OC)C(C)C)[nH]c5c4)c4c3ccn4C)cc2[nH]1)C(C)C [Compound 133]	< 1 nM
COC(=O)N[C@H](C(=O)N1CCC[C@H]1c1nc2ccc(-c3ccc(-c4ccc5nc([C@@H]6CCCN6C(=O)[C@@H](NC(=O)OC)C(C)C)[nH]c5c4)c4ccccc34)cc2[nH]1)C(C)C [Compound 59]	< 1 nM
COC(=O)N[C@H](C(=O)N1CCC[C@H]1c1nc2ccc(-c3ccc(-c4ccc5nc([C@@H]6CCCN6C(=O)[C@@H](NC(=O)OC)C(C)C)[nH]c5c4)s3)cc2[nH]1)C(C)C [Compound 55]	< 1 nM
[2H]C([2H])([2H])C([2H])(C([2H])([2H])[2H])[C@]([2H])(NC(=O)OC)C(=O)N1CCC[C@H]1c1nc2ccc(-c3ccc(-c4ccc5nc([C@@H]6CCCN6C(=O)[C@@]([2H])(NC(=O)OC)C([2H])(C([2H])([2H])[2H])C([2H])([2H])[2H])[nH]c5c4)c(OC(F)(F)F)c3)cc2[nH]1 [Compound 134]	< 1 nM
COC(=O)N[C@H](C(=O)N1CCC[C@H]1c1nc2ccc(-c3cc(-c4ccccc4)c(-c4ccc5nc([C@@H]6CCCN6C(=O)[C@@H](NC(=O)OC)C(C)C)[nH]c5c4)s3)cc2[nH]1)C(C)C [Compound 128]	< 1 nM

Same assay, conditions: Hepatitis C virus, 72 h; replicon RNA by real time PCR (Taqman), day 3; numeric, unit inferred; read-out: Biological Activity (EC90, HCV replicon)

SMILES	EC90
COC(=O)N[C@H](C(=O)N1CCC[C@H]1c1nc2cc(F)c(-c3ccc(-c4cc5[nH]c([C@@H]6CCCN6C(=O)[C@@H](NC(=O)OC)C(C)C)nc5cc4F)s3)cc2[nH]1)C(C)C [Compound 115]	0.003 nM
COC(=O)N[C@H](C(=O)N1CCC[C@H]1c1nc2ccc(-c3cc(C)c(-c4ccc5nc([C@@H]6CCCN6C(=O)[C@@H](NC(=O)OC)C(C)C)[nH]c5c4)s3)cc2[nH]1)C(C)C [Compound 103]	0.005 nM
C#CC[C@@H](NC(=O)OC)C(=O)N1CCC[C@H]1c1nc2ccc(-c3ccc(-c4ccc5nc([C@@H]6CCCN6C(=O)[C@@H](CC#C)NC(=O)OC)[nH]c5c4)s3)cc2[nH]1 [Compound 99]	0.2 nM

Same assay, conditions: Hepatitis C virus, 72 h; replicon RNA by real time PCR (Taqman), day 3; numeric; read-out: Biological Activity (EC90, HCV replicon)

SMILES	EC90
COC(=O)N[C@H](C(=O)N1CCC[C@H]1c1ncc(-c2ccc(-c3ccc4nc([C@@H]5CCCN5C(=O)[C@@H](NC(=O)OC)C(C)C)[nH]c4c3)[nH]c2=O)[nH]1)C(C)C [Compound 91]	6 nM
CCCCc1cc(-c2ccc3nc([C@@H]4CCCN4)[nH]c3c2)sc1-c1ccc2nc([C@@H]3CCCN3)[nH]c2c1 [Compound 72]	26 nM
